Source: PubChem BioAssay (NCI)
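Interpolation was linear, between the two tested concentrations surrounding the appropriate level; five concentrations were tested over 48 hours in 96-well plates. TGI denotes the concentration required for complete inhibition of growth.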

Experiments:
Assay in all cases: NCI-60 cell line screen, 48 h
NCI-H23 lung = tested on: NCI-H23 lung
OVCAR-8 ovarian = tested on: OVCAR-8 ovarian
LOX IMVI melanoma = tested on: LOX IMVI melanoma
OVCAR-5 ovarian = tested on: OVCAR-5 ovarian
TK-10 renal = tested on: TK-10 renal
SK-OV-3 ovarian = tested on: SK-OV-3 ovarian
EKVX NSCLC = tested on: EKVX NSCLC
BT-549 breast = tested on: BT-549 breast
NCI-H460 lung = tested on: NCI-H460 lung
786-0 renal = tested on: 786-0 renal
SF-539 CNS = tested on: SF-539 CNS
HCT-15 colon = tested on: HCT-15 colon

Compound	TGI (NCI-H23 lung) [µM]	TGI (OVCAR-8 ovarian) [µM]	TGI (LOX IMVI melanoma) [µM]	TGI (OVCAR-5 ovarian) [µM]	TGI (TK-10 renal) [µM]	TGI (SK-OV-3 ovarian) [µM]	TGI (EKVX NSCLC) [µM]	TGI (BT-549 breast) [µM]	TGI (NCI-H460 lung) [µM]	TGI (786-0 renal) [µM]	TGI (SF-539 CNS) [µM]	TGI (HCT-15 colon) [µM]
COC(=O)c1cc(NC(=O)Cc2c[nH]c3ccccc23)cn1C	> 100	> 100	> 100	> 100	> 100	> 100	> 100	> 100	> 100	> 100	> 100	> 100
O=[N+]([O-])c1ccc(-n2nc3ccc4c(no[n+]4[O-])c3n2)cc1	> 100	> 100	> 100	> 100	> 100	> 100	> 100	> 100	> 100	> 100	> 100	> 100
CCOC(=O)/C=C(/C(=O)OCC)n1ccc(=O)n(Cc2cnnn2COCCOC(C)=O)c1=O	33.3	30.6	37.3	35.9	22.2	> 100	33.8	38.2	> 65	29.2	25.7	31
CCCCc1ccc(Nc2nc(OC)c3ncn(C4CC(O)C(CO)O4)c3n2)cc1 (stereo not drawn)	35.3	35.2	31.4	> 100	50.1	27.8	6.08	38.1	32.9	30.9	29	34.3
